From BindingDB's records for doi:10.1021/jm0303094 (Aton Pharma, 2003)

Columns and labels:
[1] = Inhibition of acetylation of histone-4 in human T-24 cancer cells
[2] = target: Histone deacetylase; test: Inhibitory concentration determined against Histone deacetylase from Eimeria tenella

EC50 [1] [µM] | IC50 [2] [µM] | Compound
10 | – | Cc1ccc(S(=O)(=O)Nc2ccc(/C=C/C(=O)NO)cc2)cc1 [US8796330, 108]
> 25 | – | CC(C)C(Cc1ccc(NS(=O)(=O)c2ccccc2)cc1)C(=O)NO (stereo not given) [US8796330, 81]
5 | – | COc1ccc(S(=O)(=O)Nc2ccc(/C=C/C(=O)NO)cc2)cc1 [US8796330, 113]
> 25 | – | CN(c1ccc(/C=C/C(=O)NO)cc1)S(=O)(=O)c1ccccc1
5 | – | O=C(NO)c1ccc(NS(=O)(=O)c2ccccc2)cc1 [4-Benzenesulfonylamino-N-hydroxy-benzamide]
> 25 | – | CC(Cc1ccc(NS(=O)(=O)c2ccccc2)cc1)C(=O)NO (stereo not given) [3-(4-Benzenesulfonylamino-phenyl)-N-hydroxy-2-methyl-propionamide]
1 | – | O=C(/C=C/c1ccc(NS(=O)(=O)c2ccc(-c3ccccc3)cc2)cc1)NO [US8796330, 120]
> 25 | – | COc1ccc(NC(=O)Nc2ccc(/C=C/C(=O)NO)cc2)cc1OC
– | 0.004 | CCC(C)[C@@H]1NC(=O)[C@H](Cc2cn(OC)c3ccccc23)NC(=O)[C@H](CCCCCC(=O)NO)NC(=O)[C@H]2CCCCN2C1=O (stereo partly drawn) [6-[(6S,9S,12S,14aR)-6-sec-Butyl-9-(1-methoxy-1H-indol-3-ylmethyl)-5,8,11,14-tetraoxo-tetradecahydro-4a,7,10,13-tetraaza-benzocyclododecen-12-yl]-hexanoic acid hydroxyamide]
– | 0.004 | CCC(C)[C@@H]1NC(=O)[C@H](Cc2cn(OC)c3ccccc23)NC(=O)[C@H](CCCCCC(=O)C(C)O)NC(=O)[C@H]2CCCCN2C1=O (stereo partly drawn) [(6S,9S,12S,14aR)-6-sec-Butyl-12-(7-hydroxy-6-oxo-octyl)-9-(1-methoxy-1H-indol-3-ylmethyl)-decahydro-4a,7,10,13-tetraaza-benzocyclododecene-5,8,11,14-tetraone]
1 | – | O=C(/C=C/c1ccc(S(=O)(=O)Nc2ccc(-c3ccccc3)cc2)cc1)NO
– | 0.001 | CCC(C)[C@@H]1NC(=O)[C@H](Cc2cn(OC)c3ccccc23)NC(=O)[C@H](CCCCCC(=O)C2CO2)NC(=O)[C@H]2CCCCN2C1=O (stereo partly drawn) [(6S,9S,12S,14aR)-6-sec-Butyl-9-(1-methoxy-1H-indol-3-ylmethyl)-12-(6-oxiranyl-6-oxo-hexyl)-decahydro-4a,7,10,13-tetraaza-benzocyclododecene-5,8,11,14-tetraone]
– | 0.0008 | CCC(C)[C@@H]1NC(=O)[C@H](Cc2cn(OC)c3ccccc23)NC(=O)[C@H](CCCCCC(=O)OC)NC(=O)[C@H]2CCCCN2C1=O (stereo partly drawn) [6-[(6S,9S,12S,14aR)-6-sec-Butyl-9-(1-methoxy-1H-indol-3-ylmethyl)-5,8,11,14-tetraoxo-tetradecahydro-4a,7,10,13-tetraaza-benzocyclododecen-12-yl]-hexanoic acid methyl ester]
1 | – | COc1ccc(S(=O)(=O)Nc2ccc(/C=C/C(=O)NO)cc2)cc1OC [US8796330, 90]
1 | – | Cc1ccc(NS(=O)(=O)c2ccc(/C=C/C(=O)NO)cc2)cc1 [US8796330, 161]
> 25 | – | C/C(=C\c1ccc(NS(=O)(=O)c2ccccc2)cc1)C(=O)NO [US8796330, 91]
> 25 | – | O=C(CCCc1ccc(NS(=O)(=O)c2ccccc2)cc1)NO [US8796330, 42]
5 | – | O=C(CCc1ccc(NS(=O)(=O)c2ccccc2)cc1)NO [US8796330, 38]
> 25 | – | O=C(Cc1ccc(NS(=O)(=O)c2ccccc2)cc1)NO [2-(4-Benzenesulfonylamino-phenyl)-N-hydroxy-acetamide]

Compound | EC50 [1] [µM] | IC50 [2] [µM]
CCC(C)[C@@H]1NC(=O)[C@H](Cc2cn(OC)c3ccccc23)NC(=O)[C@H](CCCCCC(=O)O)NC(=O)[C@H]2CCCCN2C1=O (stereo partly drawn) [6-[(6S,9S,12S,14aR)-6-sec-Butyl-9-(1-methoxy-1H-indol-3-ylmethyl)-5,8,11,14-tetraoxo-tetradecahydro-4a,7,10,13-tetraaza-benzocyclododecen-12-yl]-hexanoic acid] | – | 0.03
